Read-outs that look alike come from different tables or passages of the source. No end group written: not given here.
Target: T1, GPR103 Y29N-termA (Homo sapiens, UniProt Q96P65, Y29A)
T1 construct: we used human full-length QRFPR-encoding plasmids; expressed in transfected cells; host or cells: HEK293 cells, pCAGGS vector
T1 sequence (Q96P65 1-431 Y29A): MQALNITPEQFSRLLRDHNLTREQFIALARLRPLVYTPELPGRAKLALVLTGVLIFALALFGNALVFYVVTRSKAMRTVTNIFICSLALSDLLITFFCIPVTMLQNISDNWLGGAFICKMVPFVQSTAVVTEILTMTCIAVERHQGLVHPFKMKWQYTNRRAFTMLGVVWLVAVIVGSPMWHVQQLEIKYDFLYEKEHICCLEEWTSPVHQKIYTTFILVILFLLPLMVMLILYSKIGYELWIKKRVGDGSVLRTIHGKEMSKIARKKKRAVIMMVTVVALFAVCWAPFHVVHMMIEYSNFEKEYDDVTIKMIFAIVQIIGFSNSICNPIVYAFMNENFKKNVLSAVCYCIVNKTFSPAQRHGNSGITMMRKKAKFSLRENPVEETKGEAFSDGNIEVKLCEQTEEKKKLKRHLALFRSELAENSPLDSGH
Assay: TGFα shedding assay; Exp. level WT (1:20)
Format: cell-based

Emax (Exp. #1): 95.50 % WT
Emax (Exp. #2): 84.01 % WT
Emax (Exp. #3): 93.81 % WT
Emax (mean, read-out: Emax): 91.1%
EC50 (n = 3): 269 nM
Emax (n = 3, read-out: Emax): 94 ± 2.9%
Substance: TSGPLGNLAEELNGYSRKKGGFSFRF-NH2 [QRFP26]

From publication PMC11187126, “Structure and dynamics of the pyroglutamylated RF-amide peptide QRFP receptor GPR103” (Nature Communications, 2024)
